Measured values: ChEMBL document CHEMBL5260847, “Current scenario of indole derivatives with potential anti-drug-resistant cancer activity” (Eur J Med Chem, 2020)

Columns and labels:
Type in all cases: functional, cell-based
H69AR [1] = experiment: Antiproliferative activity against multi-drug resistant human NCI-H69AR assessed as reduction in cell viability
ZR-75-1 [2] = experiment: Antiproliferative activity against human ZR-75-1 cells assessed as reduction in cell viability celltiter-Glo assay
HT-29 [3] = experiment: Antiproliferative activity against human HT-29 cells assessed as reduction in cell viability celltiter-Glo assay
H69AR [4] = experiment: Antiproliferative activity against multidrug resistant human NCI-H69AR assessed as inhibition of cell proliferation by MTT assay
MCF7 = experiment: Antiproliferative activity against Doxorubicin resistant human MCF7 cells assessed as reduction in cell viability
ZR-75-1 [5] = experiment: Antiproliferative activity against multi-drug resistant human ZR-75-1 cells assessed as reduction in cell viability
A549 [6] = experiment: Antiproliferative activity against human A549 cells assessed as reduction in cell viability after 48 hrs by CellTiter-Blue assay; settings: A549, 48 h
A549 [7] = experiment: Antiproliferative activity against human Non-small-cell lung cancer A549 cells assessed as reduction in cell viability incubated for 72 hrs by MTT assay; settings: A549, 72 h
HT-29 [8] = experiment: Antiproliferative activity against human HT-29 cells assessed as reduction in cell viability incubated for 72 hrs by MTT assay; settings: HT-29, 72 h
HeLa = experiment: Anticancer activity against human HeLa cells assessed as inhibition of cell growth
HCT-116 = experiment: Antiproliferative activity against human HCT-116

| Structure (SMILES) | IC50 (H69AR [1]) [µM] | IC50 (ZR-75-1 [2]) [µM] | IC50 (HT-29 [3]) [µM] | IC50 (H69AR [4]) [µM] | IC50 (MCF7) [µM] | IC50 (ZR-75-1 [5]) [µM] | IC50 (A549 [6]) [µM] | IC50 (A549 [7]) [µM] | IC50 (HT-29 [8]) [µM] | IC50 (HeLa) [µM] | IC50 (HCT-116) [µM] |
| --- | --- | --- | --- | --- | --- | --- | --- | --- | --- | --- | --- |
| CCN(CC)CCNC(=O)c1c(C)[nH]c(/C=C2\C(=O)Nc3ccc(F)cc32)c1C [SUNITINIB] | 5.8 | 5.87 | 10.1 | 5.8 | > 100 | 18.9 | 10.1 | 3.06 |  |  |  |
| COc1ccc2c(c1)/C(=N/NC(=O)c1cc3cc(OC)ccc3[nH]1)C(=O)N2Cc1ccccc1 |  |  |  |  |  |  | 0.54 |  | 2.94 |  |  |
| O=C1/C(=N\O)c2ccccc2N1CCOCCN1C(=O)/C(=N/O)c2ccccc21 |  |  |  |  |  |  |  |  |  | 6.23 | 6.23 |
